In US12110288B2, “MASP-2 inhibitors and methods of use” (Omeros Corporation, priority 2019, dated 2024):
Where a name gives a salt, the structure may show the parent alone.

These compounds were tested against T1, MASP-2 (CCP1-CCP2-SP) (Homo sapiens, UniProt O00187) (assay: Enzymatic Assay for MASP-2). Settings: fluorogenic substrate based on C2 cleavage site, room temperature, 20 mM HEPES pH 7.4.
T1 construct: 15 μL of Enzyme MASP-2 (CCP1-CCP2-SP) in Assay Buffer
Type: biochemical
Procedure, shortened: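 Fluorogenic substrate modelled on the C2 cleavage site, run at room temperature in 20 mM HEPES pH 7.4, 140 mM NaCl, 0.1% Tween 20; compounds were added from DMSO serial dilutions before enzyme and substrate. Reactions ran 20 min and were stopped with 0.1 M acetic acid before fluorescence was read. % activity was normalised to DMSO-only and no-enzyme controls; IC50 was taken as Ki, with tight- or slow-binding inhibitors handled separately.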

T1 sequence (O00187 445-686 limits assumed): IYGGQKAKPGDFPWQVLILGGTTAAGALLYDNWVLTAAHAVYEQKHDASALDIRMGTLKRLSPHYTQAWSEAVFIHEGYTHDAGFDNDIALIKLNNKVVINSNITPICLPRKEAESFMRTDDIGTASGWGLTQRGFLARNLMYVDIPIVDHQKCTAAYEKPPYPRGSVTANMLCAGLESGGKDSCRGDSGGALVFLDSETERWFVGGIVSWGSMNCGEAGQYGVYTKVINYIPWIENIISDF
T1 sequence (O00187 298-444 partner limits assumed): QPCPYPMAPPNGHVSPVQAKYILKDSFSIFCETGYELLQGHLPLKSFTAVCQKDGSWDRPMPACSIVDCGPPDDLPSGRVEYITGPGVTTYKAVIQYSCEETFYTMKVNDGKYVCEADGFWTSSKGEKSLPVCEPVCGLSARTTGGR

SMILES | Ki [nM]
O=C(Cn1c(-c2ccccc2)cnc(NCCc2ccccc2F)c1=O)NCc1cc2cnccc2[nH]1 [Compound 144, N-((1H-Pyrrolo[3,2-c]pyridin-2-yl)methyl)-2-(3-((2-fluorophenethyl)amino)-2-oxo-6-phenylpyrazin-1(2H)-yl)acetamide] | < 500
O=C(Cn1c(-c2ccccc2)cnc(NCCc2cccc(F)c2)c1=O)NCc1cc2cnccc2[nH]1 [Compound 145, N-((1H-Pyrrolo[3,2-c]pyridin-2-yl)methyl)-2-(3-((3-fluorophenethyl)amino)-2-oxo-6-phenylpyrazin-1(2H)-yl)acetamide] | < 500
O=C(Cn1c(-c2ccccc2)cnc(NCCc2ccc(F)cc2)c1=O)NCc1cc2cnccc2[nH]1 [Compound 146, N-((1H-Pyrrolo[3,2-c]pyridin-2-yl)methyl)-2-(3-((4-fluorophenethyl)amino)-2-oxo-6-phenylpyrazin-1(2H)-yl)acetamide] | < 500
O=C(Cn1c(-c2ccccc2)cnc(NCc2ccc(F)cc2)c1=O)NCc1cc2cnccc2[nH]1 [Compound 147, N-((1H-Pyrrolo[3,2-c]Pyridin-2-yl)Methyl)-2-(3-((4-Fluorobenzyl)Amino)-2-Oxo-6-Phenylpyrazin-1(2H)-yl)Acetamide] | < 500
CNc1ncc(-c2ccccc2)n(CC(=O)NCc2cc3cnccc3[nH]2)c1=O [Compound 148, N-((1H-Pyrrolo[3,2-c]pyridin-2-yl)methyl)-2-(3-(methylamino)-2-oxo-6-phenylpyrazin-1(2H)-yl)acetamide] | < 500
O=C(Cn1c(-c2ccccc2)cnc(N2CCC2)c1=O)NCc1cc2cnccc2[nH]1 [Compound 149, N-((1H-Pyrrolo[3,2-c]pyridin-2-yl)methyl)-2-(3-(azetidin-1-yl)-2-oxo-6-phenylpyrazin-1(2H)-yl)acetamide] | < 500
COc1ccc(CNc2ncc(-c3ccccc3)n(CC(=O)NCc3cc4cnccc4[nH]3)c2=O)cc1 [Compound 150, N-((1H-Pyrrolo[3,2-c]pyridin-2-yl)methyl)-2-(3-((4-methoxybenzyl)amino)-2-oxo-6-phenylpyrazin-1(2H)-yl)acetamide] | < 500
O=C(Cn1c(-c2ccccc2)cnc(NCc2cccc(F)c2)c1=O)NCc1cc2cnccc2[nH]1 [Compound 151, N-((1H-Pyrrolo[3,2-c]pyridin-2-yl)methyl)-2-(3-((3-fluorobenzyl)amino)-2-oxo-6-phenylpyrazin-1(2H)-yl)acetamide] | < 500
O=C(Cn1c(-c2ccccc2)cnc(NCc2cccc(C(F)(F)F)c2)c1=O)NCc1cc2cnccc2[nH]1 [Compound 152, N-((1H-Pyrrolo[3,2-c]pyridin-2-yl)methyl)-2-(2-oxo-6-phenyl-3-((3-(trifluoromethyl)benzyl)amino)pyrazin-1(2H)-yl)acetamide] | < 500
COc1cccc(CNc2ncc(-c3ccccc3)n(CC(=O)NCc3cc4cnccc4[nH]3)c2=O)c1 [Compound 153, N-((1H-Pyrrolo[3,2-c]pyridin-2-yl)methyl)-2-(3-((3-methoxybenzyl)amino)-2-oxo-6-phenylpyrazin-1(2H)-yl)acetamide] | < 500
O=C(Cn1c(-c2ccccc2)cnc(NCc2cc(F)cc(F)c2)c1=O)NCc1cc2cnccc2[nH]1 [Compound 154, N-((1H-Pyrrolo[3,2-c]pyridin-2-yl)methyl)-2-(3-((3,5-difluorobenzyl)amino)-2-oxo-6-phenylpyrazin-1(2H)-yl)acetamide] | < 500
Cc1cccc(CNc2ncc(-c3ccccc3)n(CC(=O)NCc3cc4cnccc4[nH]3)c2=O)c1 [Compound 155, N-((1H-Pyrrolo[3,2-c]pyridin-2-yl)methyl)-2-(3-((3-methylbenzyl)amino)-2-oxo-6-phenylpyrazin-1(2H)-yl)acetamide] | < 500
C[C@H](Nc1ncc(-c2ccccc2)n(CC(=O)NCc2cc3cnccc3[nH]2)c1=O)c1ccccc1 [Compound 156, (S)-N-((1H-Pyrrolo[3,2-c]pyridin-2-yl)methyl)-2-(2-oxo-6-phenyl-3-((1-phenylethyl)amino)pyrazin-1(2H)-yl)acetamide] | < 500
CC(C)Nc1cnc(N(CCc2ccccc2)CCc2ccccc2)c(=O)n1CC(=O)NCc1cc2cnccc2[nH]1 [Compound 159] | > 10000
CC(C)Nc1cnc(NCCc2ccccc2)c(=O)n1CC(=O)NCc1cc2cnccc2[nH]1 [Compound 160] | 2500 to 10000
Cn1cc(NCCc2ccccc2)c(=O)n(CC(=O)NCc2cc3cnccc3[nH]2)c1=O [Compound 161, N-((1H-Pyrrolo[3,2-c]Pyridin-2-yl)Methyl)-2-(3-Methyl-2,6-Dioxo-5-(Phenethylamino)-3,6-Dihydropyrimidin-1(2H)-yl)Acetamide] | < 500
CCCCOc1cnc(NCCc2ccccc2)c(=O)n1CC(=O)NCc1cc2cnccc2[nH]1 [Compound 162, N-((1H-Pyrrolo[3,2-c]Pyridin-2-yl)Methyl)-2-(6-Butoxy-2-Oxo-3-(Phenethylamino)Pyrazin-1(2H)-yl)Acetamide] | < 500
COC(=O)[C@H](Cc1ccc(O)cc1)Nc1ncc(-c2ccccc2)n(CC(=O)NCc2cc3cnccc3[nH]2)c1=O [Compound 163, Methyl (4-(2-(((1H-pyrrolo[3,2-c]pyridin-2-yl)methyl)amino)-2-oxoethyl)-3-oxo-5-phenyl-3,4-dihydropyrazin-2-yl)-L-tyrosinate trifluoroacetate] | < 500
